Patent publication US8790675B2, “Biocide compositions comprising carbamates” (priority 2009, dated 2014)

Experiment: Solubility of biocides in solvents at 25° C.
Details: for Solubility of biocides: Tebucanozole: Tebucanozole dissolved in the solvent, 25° C.
Method: Solubility of two fungicides, one herbicide and two insecticides in different dialkyl amides at 25° C. was tested.

Compound | able to dissolve or disperse a wide range of biocides better than solvents known from the state of the art (wide range of biocides, versus state-of-the-art solvents) [%] | Solubility of biocides: Tebucanozole [% b.w.]
CN(C)C(=O)OCCO [Example 5] | 20 | 
CCCCNC(=O)OCCO [Example 7] |  | 20
CCCNC(=O)OCCO [Example 8] |  | 23
